Data as given in patent US7919498B2, “Substituted pyrazolo[3,4-d]pyrimidines as PI3K inhibitors” (Amgen Inc., priority 2007, dated 2011).

molecular target: T1, PI3Kδ (Homo sapiens, UniProt O00329); assay: In vitro enzyme assay of PI3Kδ (residual ATP bioluminescence); type: biochemical; conditions: not given
T1 construct: Full length p110 subunits of PI3k α, β and δ, N-terminally labeled with polyHis tag; polyHis (N); made in house; host or cells: Sf9 insect cells (baculovirus)
Protocol: Recombinant Expression of PI3Ks
Full length p110 subunits of PI3k α, β and δ, N-terminally labeled with polyHis tag, were coexpressed with p85 with Baculo virus expression vectors in sf9 insect cells. P110/p85 heterodimers were purified by sequential Ni-NTA, Q-HP, Superdex-100 chromatography. Purified α, β and δ isozymes were stored at −20° C. in 20 mM Tris, pH 8, 0.2M NaCl, 50% glycerol, 5 mM DTT, 2 mM Na cholate. Truncated PI3Kγ, residues 114-1102, N-terminally labeled with polyHis tag, was expressed with Baculo virus in Hi5 insect cells. The γ isozyme was purified by sequential Ni-NTA, Superdex-200, Q-HP chromatography. The γ isozyme was stored frozen at −80° C. in NaH2PO4, pH 8, 0.2M NaCl, 1% ethylene glycol, 2 mM β-mercaptoethanol.
Assays were performed in 25 μL with the above final concentrations of components in white polyproplyene plates (Costar 3355). Phospatidyl inositol phosphoacceptor, PtdIns(4,5)P2 P4508, was from Echelon Biosciences. The ATPase activity of the alpha and gamma isozymes was not greatly stimulated by PtdIns(4,5)P2 under these conditions and was therefore omitted from the assay of these isozymes. Test compounds were dissolved in dimethyl sulfoxide and diluted with three-fold serial dilutions. The compound in DMSO (1 μL) was added per test well, and the inhibition relative to reactions containing no compound, with and without enzyme was determined. After assay incubation at room temperature, the reaction was stopped and residual ATP determined by addition of an equal volume of a commercial ATP bioluminescence kit (Perkin Elmer EasyLite) according to the manufacturer's instructions, and detected using a AnalystGT luminometer.

T1 sequence (O00329 whole entry): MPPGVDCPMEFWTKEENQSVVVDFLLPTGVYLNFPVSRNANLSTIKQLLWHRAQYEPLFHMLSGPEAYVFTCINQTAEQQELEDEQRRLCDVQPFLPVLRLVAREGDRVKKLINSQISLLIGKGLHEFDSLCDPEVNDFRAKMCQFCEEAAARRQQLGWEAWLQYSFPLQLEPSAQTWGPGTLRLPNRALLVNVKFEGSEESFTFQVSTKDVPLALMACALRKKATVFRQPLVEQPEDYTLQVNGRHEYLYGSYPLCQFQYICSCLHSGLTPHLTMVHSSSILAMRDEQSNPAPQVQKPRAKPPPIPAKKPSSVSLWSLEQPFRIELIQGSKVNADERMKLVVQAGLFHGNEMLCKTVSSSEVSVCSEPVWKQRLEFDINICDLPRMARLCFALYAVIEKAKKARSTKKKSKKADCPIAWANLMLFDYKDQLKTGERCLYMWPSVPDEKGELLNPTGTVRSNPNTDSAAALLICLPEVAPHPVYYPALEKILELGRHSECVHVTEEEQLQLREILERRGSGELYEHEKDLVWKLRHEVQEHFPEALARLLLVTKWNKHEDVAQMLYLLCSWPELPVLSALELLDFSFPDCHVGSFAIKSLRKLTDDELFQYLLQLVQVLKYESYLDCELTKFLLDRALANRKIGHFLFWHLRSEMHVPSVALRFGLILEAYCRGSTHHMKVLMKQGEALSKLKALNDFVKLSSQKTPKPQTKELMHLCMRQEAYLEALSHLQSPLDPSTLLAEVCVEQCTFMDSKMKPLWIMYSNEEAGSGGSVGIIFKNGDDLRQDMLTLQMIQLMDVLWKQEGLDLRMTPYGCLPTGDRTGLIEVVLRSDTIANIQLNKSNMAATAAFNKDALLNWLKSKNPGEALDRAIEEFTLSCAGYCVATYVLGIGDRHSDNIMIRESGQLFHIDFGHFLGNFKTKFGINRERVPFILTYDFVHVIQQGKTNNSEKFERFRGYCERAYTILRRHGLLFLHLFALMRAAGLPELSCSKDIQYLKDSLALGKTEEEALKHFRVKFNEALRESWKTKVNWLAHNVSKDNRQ
T1 sequence (P27986 whole entry partner): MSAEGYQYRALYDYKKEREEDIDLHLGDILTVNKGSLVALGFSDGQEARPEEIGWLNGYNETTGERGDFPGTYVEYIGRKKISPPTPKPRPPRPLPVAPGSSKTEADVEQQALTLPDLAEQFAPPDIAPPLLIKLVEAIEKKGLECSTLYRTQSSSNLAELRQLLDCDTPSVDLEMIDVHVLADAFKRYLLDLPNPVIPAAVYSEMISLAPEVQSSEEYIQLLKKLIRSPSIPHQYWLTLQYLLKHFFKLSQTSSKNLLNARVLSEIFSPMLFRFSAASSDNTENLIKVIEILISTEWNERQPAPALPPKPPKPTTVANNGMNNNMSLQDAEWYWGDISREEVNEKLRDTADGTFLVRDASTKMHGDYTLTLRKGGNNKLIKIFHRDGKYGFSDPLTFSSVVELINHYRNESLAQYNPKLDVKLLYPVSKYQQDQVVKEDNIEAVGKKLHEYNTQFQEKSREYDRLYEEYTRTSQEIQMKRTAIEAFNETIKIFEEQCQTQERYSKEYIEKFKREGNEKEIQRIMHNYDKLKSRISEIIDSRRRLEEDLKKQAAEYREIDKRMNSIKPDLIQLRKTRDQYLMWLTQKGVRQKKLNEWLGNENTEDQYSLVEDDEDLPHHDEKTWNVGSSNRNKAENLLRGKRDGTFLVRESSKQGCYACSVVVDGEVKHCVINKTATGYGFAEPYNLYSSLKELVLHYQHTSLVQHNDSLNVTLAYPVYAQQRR

| IC50 | SMILES |
| --- | --- |
| 2.13 µM | Cc1cccc2cc(Cn3cnc4c(N)ncnc43)c(-c3ccccc3Cl)nc12 [Example 1, 9-((2-(2-Chlorophenyl)-8-methylquinolin-3-yl)methyl)-9H-purin-6-amine] |
| 0.058 µM | Cc1cccc2cc(Cn3ccc(=O)c4c(N)ncnc43)c(-c3ccccc3Cl)nc12 [Example 2, 4-Amino-8-((2-(2-chlorophenyl)-8-methylquinolin-3-yl)methyl)pyrido[2,3-d]pyrimidin-5(8H)-one] |
| 1.97 µM | Cc1cccc2cc(Cn3ccc4c(N)ncnc43)c(-c3ccccc3Cl)nc12 [Example 19, 7-((2-(2-Chlorophenyl)-8-methylquinolin-3-yl)methyl)-7H-pyrrolo[2,3-d]pyrimidin-4-amine] |
| 0.038 µM | Cc1cccc2nc(-c3ccccc3Cl)c(Cn3nc(I)c4c(N)ncnc43)nc12 [Example 15, 1-((3-(2-Chlorophenyl)-8-methylquinoxalin-2-yl)methyl)-3-iodo-1H-pyrazolo[3,4-d]pyrimidin-4-amine] |
| 0.018 µM | Cc1cccc2nc(-c3ccccc3Cl)c(Cn3nc(-c4cn[nH]c4)c4c(N)ncnc43)nc12 [Example 17, 1-((3-(2-Chlorophenyl)-8-methylquinoxalin-2-yl)methyl)-3-(1H-pyrazol-4-yl)-1H-pyrazolo[3,4-d]pyrimidin-4-amine] |
| 0.008 µM | Cc1cccc2cc(Cn3nc(-c4cn[nH]c4)c4c(N)ncnc43)c(-c3ccccc3C(F)(F)F)nc12 [Example 12, 1-((8-Methyl-2-(2-(trifluoromethyl)phenyl)quinolin-3-yl)methyl)-3-(1H-pyrazol-4-yl)-1H-pyrazolo[3,4-d]pyrimidin-4-amine] |
| 0.02 µM | Cc1cccc2cc(Cn3cc(Cl)c4c(N)ncnc43)c(-c3ccccc3Cl)nc12 [Example 20, 5-Chloro-7-((2-(2-chlorophenyl)-8-methylquinolin-3-yl)methyl)-7H-pyrrolo[2,3-d]pyrimidin-4-amine] |
| 0.021 µM | Cc1cccc2nc(Cn3nc(I)c4c(N)ncnc43)c(-c3ccccc3Cl)nc12 [Example 16, 1-((3-(2-Chlorophenyl)-5-methylquinoxalin-2-yl)methyl)-3-iodo-1H-pyrazolo[3,4-d]pyrimidin-4-amine] |
| 0.137 µM | Cc1cccc2cc(Cn3nc(C)c4c(N)ncnc43)c(-c3ccccc3Cl)nc12 [Example 11, 1-((2-(2-Chlorophenyl)-8-methylquinolin-3-yl)methyl)-3-methyl-1H-pyrazolo[3,4-d]pyrimidin-4-amine] |
| 0.03 µM | Cc1cccc2nc(Cn3nc(-c4cn[nH]c4)c4c(N)ncnc43)c(-c3ccccc3Cl)nc12 [Example 18, 1-((3-(2-Chlorophenyl)-5-methylquinoxalin-2-yl)methyl)-3-(1H-pyrazol-4-yl)-1H-pyrazolo[3,4-d]pyrimidin-4-amine] |
| 0.014 µM | Nc1ncnc2c1c(I)nn2Cc1cc2cccc(Cl)c2nc1-c1ccccc1Cl [Example 5, 1-((8-Chloro-2-(2-chlorophenyl)quinolin-3-yl)methyl)-3-iodo-1H-pyrazolo[3,4-d]pyrimidin-4-amine] |
| 0.014 µM | Nc1ncnc2c1c(-c1cccc(O)c1)nn2Cc1cc2cccc(Cl)c2nc1-c1ccccc1Cl [Example 10, 3-(4-Amino-1-((8-chloro-2-(2-chlorophenyl)quinolin-3-yl)methyl)-1H-pyrazolo[3,4-d]pyrimidin-3-yl)phenol] |

The remaining lines, values behind:

| SMILES | IC50 |
| --- | --- |
| Cc1cccc2cc(Cn3nc(C4CC4)c4c(N)ncnc43)c(-c3ccccc3C(F)(F)F)nc12 [Example 13, 3-Cyclopropyl-1-((8-methyl-2-(2-(trifluoromethyl)phenyl)quinolin-3-yl)methyl)-1H-pyrazolo[3,4-d]pyrimidin-4-amine] | 0.149 µM |
| Cc1cccc2cc(Cn3nc(I)c4c(N)ncnc43)c(-c3ccccc3F)nc12 [Example 7, 1-((2-(2-Fluorophenyl)-8-methylquinolin-3-yl)methyl)-3-iodo-1H-pyrazolo[3,4-d]pyrimidin-4-amine] | 0.004 µM |
| Cc1cccc2cc(Cn3nc(-c4cccc(O)c4)c4c(N)ncnc43)c(-c3ccccc3C(F)(F)F)nc12 [Example 8, 3-(4-Amino-1-((8-methyl-2-(2-(trifluoromethyl)phenyl)quinolin-3-yl)methyl)-1H-pyrazolo[3,4-d]pyrimidin-3-yl)phenol] | 0.008 µM |
| Nc1ncnc2c1c(I)nn2Cc1cc2cccc(Cl)c2nc1-c1ccccc1C(F)(F)F [Example 6, 1-((8-Chloro-2-(2-(trifluoromethyl)phenyl)quinolin-3-yl)methyl)-3-iodo-1H-pyrazolo[3,4-d]pyrimidin-4-amine] | 0.007 µM |
| Cc1ccccc1-c1nc2c(C)cccc2cc1Cn1nc(I)c2c(N)ncnc21 [Example 4, 3-Iodo-1-((8-methyl-2-o-tolylquinolin-3-yl)methyl)-1H-pyrazolo[3,4-d]pyrimidin-4-amine] | 0.006 µM |
| Cc1cccc2cc(Cn3nc(C#CC(C)(C)O)c4c(N)ncnc43)c(-c3ccccc3C(F)(F)F)nc12 [Example 14, 4-(4-Amino-1-((8-methyl-2-(2-(trifluoromethyl)phenyl)quinolin-3-yl)methyl)-1H-pyrazolo[3,4-d]pyrimidin-3-yl)-2-methylbut-3-yn-2-ol] | 0.116 µM |
| Nc1ncnc2c1c(=O)ccn2Cc1cc2cccc(Cl)c2nc1-c1ccccc1Cl [Example 22, 4-Amino-8-((8-chloro-2-(2-chlorophenyl)quinolin-3-yl)methyl)pyrido[2,3-d]pyrimidin-5(8H)-one] | 0.033 µM |
| COc1ccccc1-n1c(Cn2ccc(=O)c3c(N)ncnc32)nc2cccc(Cl)c2c1=O [Example 21, 4-Amino-8-((5-chloro-3-(2-methoxyphenyl)-4-oxo-3,4-dihydroquinazolin-2-yl)methyl)pyrido[2,3-d]pyrimidin-5(8H)-one] | 0.013 µM |

tested on: human B cells; assay: Human B cells proliferation stimulated by anti-IgM; type: cell-based; conditions: B-cell; anti-Human IgM + CD40L-LZ, 72 h, 3H thymidine
Protocol: Human B Cells Proliferation Stimulate by Anti-IgM
Isolate PBMCs from Leukopac or from human fresh blood. Isolate human B cells by using Miltenyi protocol and B cell isolation kit II.—human B cells were Purified by using AutoMacs.column.
Activation of Human B Cells
Use 96 well Flat bottom plate, plate 50000/well purified B cells in B cell proliferation medium (DMEM+5% FCS, 10 mM Hepes, 50 μM 2-mercaptoethanol); 150 μL medium contain 250 ng/mL CD40L-LZ recombinant protein (Amgen) and 2 μg/mL anti-Human IgM antibody (Jackson ImmunoReseach Lab.# 109-006-129), mixed with 50 μL B cell medium containing PI3K inhibitors and incubate 72 h at 37° C. incubator. After 72 h, pulse labeling B cells with 0.5-1 uCi/well ^3H thymidine for overnight ˜18 h, and harvest cell using TOM harvester.

| SMILES | IC50 |
| --- | --- |
| Cc1nn(Cc2cc3c(Cl)cccc3nc2-c2ccccc2C(F)(F)F)c2ncnc(N)c12 [Example 31, 1-((5-Chloro-2-(2-(trifluoromethyl)phenyl)quinolin-3-yl)methyl)-3-methyl-1H-pyrazolo[3,4-d]pyrimidin-4-amine] | 0.136 µM |
| Nc1ncnc2c1c(-c1cn[nH]c1)nn2Cc1cc2cccc(Cl)c2nc1-c1ccccc1F [1-((8-chloro-2-(2-fluorophenyl)-3-quinolinyl)methyl)-3-(1H-pyrazol-4-yl)-1H-pyrazolo[3,4-d]pyrimidin-4-amine] | 0.0182 µM |
| Nc1ncnc2c1c(I)nn2Cc1nc2cccc(F)c2nc1-c1ccccc1Cl [1-((3-(2-Chlorophenyl)-5-fluoroquinoxalin-2-yl)methyl)-3-iodo-1H-pyrazolo[3,4-d]pyrimidin-4-amine] | 0.554 µM |
| Cc1nn(Cc2cc3cccc(Cl)c3nc2-c2ccccc2C(F)(F)F)c2ncnc(N)c12 [Example 30, 1-((8-chloro-2-(2-(trifluoromethyl)phenyl)quinolin-3-yl)methyl)-3-methyl-1H-pyrazolo[3,4-d]pyrimidin-4-amine] | 0.0448 µM |
| Cc1cccc2nc(Cn3nc(-c4cnn(C)c4)c4c(N)ncnc43)c(-c3ccccc3Cl)nc12 [1-((3-(2-chlorophenyl)-5-methylquinoxalin-2-yl)methyl)-3-(1-methyl-1H-pyrazol-4-yl)-1H-pyrazolo[3,4-d]pyrimidin-4-amine] | 0.037 µM |
| Nc1ncnc2c1c(I)nn2Cc1nc2c(F)cccc2nc1-c1ccccc1Cl [1-((3-(2-Chlorophenyl)-8-fluoroquinoxalin-2-yl)methyl)-3-iodo-1H-pyrazolo[3,4-d]pyrimidin-4-amine] | 0.818 µM |
| Cc1cccc2nc(-c3ccccc3Cl)c(Cn3nc(-c4cnn(C)c4)c4c(N)ncnc43)nc12 [1-((3-(2-chlorophenyl)-8-methylquinoxalin-2-yl)methyl)-3-(1-methyl-1H-pyrazol-4-yl)-1H-pyrazolo[3,4-d]pyrimidin-4-amine] | 0.0198 µM |
| Cc1cccc2nc(Cn3nc(I)c4c(N)ncnc43)c(-c3cccc(F)c3)c(=O)n12 [2-((4-amino-3-iodo-1H-pyrazolo[3,4-d]pyrimidin-1-yl)-methyl)-3-(3-fluorophenyl)-6-methyl-4H-pyrido[1,2-a]pyrimidin-4-one] | 0.512 µM |
| Cc1nn([C@@H](C)c2cc3cccc(Cl)c3nc2-c2cccc(F)c2)c2ncnc(N)c12 [Example 23, 1-((S)-1-(8-chloro-2-(3-fluorophenyl)quinolin-3-yl)ethyl)-3-methyl-1H-pyrazolo[3,4-d]pyrimidin-4-amine] | 0.00157 µM |
| Cc1cccc2nc(-c3ccccc3Cl)c(Cn3nc(C#N)c4c(N)ncnc43)nc12 [4-Amino-1-((3-(2-chlorophenyl)-8-methylquinoxalin-2-yl)methyl)-1H-pyrazolo[3,4-d]pyrimidine-3-carbonitrile] | 0.0838 µM |
